The text below walks through data of patent US10031142B2, “In situ chemiluminescent substrates and assays” (Life Technologies Corporation, priority 2010, dated 2018).

Data set [1] concerns alkaline phosphatase. To be noted: TBQ, 37° C., 25 minutes.
Description: The following reagents were used for this: • 0.1M aminomethylpropanol buffer, pH 9.5 (AMP Buffer), • CDP-Star® (CDP*, Life Technologies): 6.2 mg/mL (12.5 mM) in AMP Buffer, • ADP-Star® (ADP*, Life Technologies): 1 mg/mL (2.2 mM) in 0.1M AMP Buffer, • ADP*-EE Oxidation mixture: 1 mg/mL (2.3 mM) in 0.1M AMP Buffer, • TBQ: 10× Sapphire II™ chemiluminescence enhancer (Life Technologies), and • Alkaline Phosphatase stock (AP): 8 ng/mL (from 17.4 mg/mL concentrate).
10 μL ADP* or ADP*-EE Oxidation mixture (0.22 or 0.23 mM, respectively), 10 μL TBQ, 80 μL AMP Buffer and 10 μL AP were combined and the luminescence from the mixture was measured continuously at 37° C. for 25 minutes. 1.6 μL CDP* (0.2 mM), 10 μL TBQ, 80 μL AMP Buffer and 10 μL AP were combined and the luminescence from the mixture was measured continuously at 37° C. for 25 minutes.
Data set [2] is described as follows: Thermal stability of aqueous solutions of reagents. It is filed as physicochemical. The source says: The thermal stabilities of aqueous solutions AMPPD®, AMPPD enol ether phosphate (AMPPD-EE) and AMPPD-EE in the presence of Na2MoO4 were examined.
Data set [3] relates to alkaline phosphatase. As to conditions: in the presence of Sapphire II enhancer.
Excerpt: Benchmarking experiments compared the light emission (in RLUs) and signal to noise (S:N) of in situ ADP-Star with control dioxetanes CSPD®, ADP-Star®, and CDP-Star®.
The subject of data set [4] is alkaline phosphatase. The source says: Before developing assay conditions with Method B in situ dioxetane generation, we investigated whether the reagents from the oxidation system adversely affected alkaline phosphatase activity. […] Any quenching effects from a singlet oxygen generation/reaction system may be enzyme-specific, and would have to be evaluated for any enzyme/detection substrate pair.

For data set [5] the following is noted: cited from earlier work.

Read-outs that look alike come from different tables or passages of the source.

Turning to `COC(=C1C2CC3CC(C2)CC1C3)c1ccc(Cl)c(OP(=O)([O-])[O-])c1.[Na+].[Na+]` [ADP-Star enol ether phosphate], the “light emission compared with CDP-Star dioxetane control” value with alkaline phosphatase [1] is given as “higher light emission”.
For `COC(=C1C2CC3CC(C2)CC1C3)c1cccc(OP(=O)([O-])[O-])c1.[Na+].[Na+]` [AMPPD-EE], the “Stability/Storage Conditions (loss)” value in data set [2] (1 month, 55° C.) is “Minimal loss in 1 month, 55 °C”. Besides, the thermal decomposition result in data set [2] (aqueous solution, 40° C. over 4+ months) is reported as “virtually no thermal decomposition”; in data set [2] (aqueous solution, 55° C. over 5+ months) it was “minimal thermal decomposition”; in data set [2] (in the presence of Na2MoO4 at 40° C.) it was “no thermal decomposition”.
With `COC1(c2cccc(OP(=O)(O)O)c2)OOC12C1CC3CC(C1)CC2C3` (stereo not drawn) [AMPPD®, reference compound], the thermal half-life is recorded as roughly 40 days in data set [2] (aqueous solution, 40° C.) and roughly 10 days in data set [2] (aqueous solution, 55° C.).
On to `COC1(c2cccc(OP(=O)(O)O)c2)OOC12C1CC3CC2CC(Cl)(C3)C1` (stereo not drawn) [CSPD®], for which the “time reaching glow (maximum light emission)” value with alkaline phosphatase [3] was 30 min.
Turning to `OO` [hydrogen peroxide], the “effect on alkaline phosphatase activity” value with alkaline phosphatase [4] is given as “does not affect alkaline phosphatase activity”. The “Stability/Storage Conditions” value in data set [5] (35% soln, 1 yr, 25° C.) was >99.3% in 1 yr, 25° C.;; in data set [5] (35% soln, 24 hr, 100° C.) it was ≥96.0% in 24 hr, 100 °C.
As to `[Na+].[Na+].[O]=[Mo](=[O])([O-])[O-]` [sodium molybdate], in the data set with alkaline phosphatase [4] (AMPPD substrate, TBQ enhancer, 37° C., 30 minutes), the “effect on alkaline phosphatase activity” value is “significantly quenches alkaline phosphatase activity”. Further, the “light reduction (quenching of alkaline phosphatase activity)” value in the data set on alkaline phosphatase [4] (AMPPD substrate, various amounts of Na2MoO4 stock, 37° C.) is listed as “up to 85%”. Also, the “alkaline phosphatase activity on lowering concentration” value in the data set with alkaline phosphatase [4] (sodium molybdate <1 mM) is reported as “restores most of the alkaline phosphatase activity”. Moreover, the “Stability/Storage Conditions” value in data set [5] (solid) was ““Stable under ordinary conditions of use &”.
